Laboratory results reported in PMC5059489, “Mechanistic evaluation and transcriptional signature of a glutathione S-transferase omega 1 inhibitor” (Nature Communications, 2016).
Several values for one entry are separate records, joined by “and”; a condition that tells them apart may be missing. Equal entries are not always repeated.

How the values were obtained:
GSTO1 [1] = molecular target: T1, GSTO1 (Homo sapiens, UniProt P78417); assay: In-gel fluorescence competitive CMFDA binding assay, recombinant GSTO1; conditions: inhibition of CMFDA binding
T1 sequence (P78417 1-241): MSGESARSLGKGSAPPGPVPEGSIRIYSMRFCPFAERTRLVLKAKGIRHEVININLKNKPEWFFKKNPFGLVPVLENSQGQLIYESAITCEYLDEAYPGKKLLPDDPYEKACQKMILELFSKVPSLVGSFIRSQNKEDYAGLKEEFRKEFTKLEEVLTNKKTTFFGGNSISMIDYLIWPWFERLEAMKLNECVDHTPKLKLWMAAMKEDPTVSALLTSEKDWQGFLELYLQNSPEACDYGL
Excerpt: (§1) Primary screening of GSTO inhibitors was based on competitive inhibition of CMFDA binding to endogenous GSTO. Briefly, HCT116^p53+/+ cells (4 × 10^4 per well) were coated in a 12-well plate. […] Cells were then washed with PBS and lysed using Cell Lytic M buffer (Sigma). […] Gels were immediately scanned on a Typhoon variable mode imager (Amersham Bioscience). Quantification of fluorescent band intensity was done using Image Quant 5.2 software.

HCT116p53+/+ cell = assay: MTT cell proliferation at single concentration; format: cell-based, human
Method: Cell proliferation was assessed by a MTT assay. Cancer cells were seeded in 96-well microtitre plates and, after overnight attachment, treated with GSTO1 inhibitors. After 72 h, MTT solution (3 mg ml^−1; 20 μl) was added to each well and cells were incubated for 3 h at 37 °C. After incubation, media from each well was removed and the dark blue formazan crystals formed by live cells were dissolved in DMSO (150 μl per well). The absorbance intensity was measured at 570 nm on a microplate reader (Molecular Devices, Sunnyvale, CA, USA). Cell viability after 24 h treatment was assessed using ApoTox-Glo triplex assay (Promega) according to the manufacturer's protocol. At least three independent dose–response experiments with each concentration tested in triplicate were performed for each cell line.

GSTO1 [2] = molecular target: T1, GSTO1; assay: GSTO1 substrate assay (reduction of 4-NPG); conditions: for IC50: read-out: GSTO substrate assay IC50, cluster screening tables
Method: For activity screening, we adapted a GSTO1 substrate assay that relies on the quantification of the reduction of S-(4-nitrophenacyl)glutathione (4-NPG), a GSTO1-specific substrate[17], using recombinant human GSTO1 in a high-throughput screening format.
Enzyme activity was measured by monitoring the reduction of 4-NPG to 4-nitroacetophenone by GSTO1.

endogenous GSTO1 = molecular target: T2, endogenous GSTO1 (Homo sapiens, UniProt P78417); assay: In-gel fluorescence competitive CMFDA binding assay, endogenous GSTO1 in HCT116; conditions: 10 µM; inhibition of CMFDA binding, HCT116
T2 sequence (P78417 1-241): T1 sequence (P78417 1-241)
Excerpt: as §1

SMILES: COc1cc(OC)c(OC)cc1CNC(=O)CCl [C3-4]
- GSTO binding assay (% Inhibition at 10 µM) Recombinant (GSTO1 [1]): -2.6%
- % Inhibition of HCT116p53+/+ cell proliferation at 10 µM (HCT116p53+/+ cell): 16% and 17.5%
- GSTO substrate assay % Inhibition at 10 µM (GSTO1 [2]): 31.6%

SMILES: O=C(CCl)N1CCN(c2ncc(C(F)(F)F)cc2Cl)CC1 [C5-6]
- GSTO binding assay (% Inhibition at 10 µM) Recombinant (GSTO1 [1]): 70.2%
- % Inhibition of HCT116p53+/+ cell proliferation at 10 µM (HCT116p53+/+ cell): 56.2%
- GSTO substrate assay % Inhibition at 10 µM (GSTO1 [2]): 94.6%
- IC50 (GSTO1 [2]): 0.191 µM

SMILES: O=C(CCl)N1CCN(S(=O)(=O)c2ccc3c(c2)OCCO3)CC1 [C5-15]
- GSTO binding assay (% Inhibition at 10 µM) Recombinant (GSTO1 [1]): 62.4%
- % Inhibition of HCT116p53+/+ cell proliferation at 10 µM (HCT116p53+/+ cell): 82.7% and 87.3%
- GSTO substrate assay % Inhibition at 10 µM (GSTO1 [2]): 63.7%
- IC50 (GSTO1 [2]): 0.262 µM

SMILES: CN(C)S(=O)(=O)c1ccc2c(c1)CCCN2C(=O)CCl [C5-18]
- GSTO binding assay (% Inhibition at 10 µM) Recombinant (GSTO1 [1]): 69.7%
- % Inhibition of HCT116p53+/+ cell proliferation at 10 µM (HCT116p53+/+ cell): 91.6% and 91.4%
- GSTO substrate assay % Inhibition at 10 µM (GSTO1 [2]): 72.7%
- IC50 (GSTO1 [2]): 0.164 µM

SMILES: CC1Cc2cc(S(N)(=O)=O)ccc2N1C(=O)CCl (stereo not shown) [C5-20]
- GSTO binding assay (% Inhibition at 10 µM) Recombinant (GSTO1 [1]): 68.1%
- % Inhibition of HCT116p53+/+ cell proliferation at 10 µM (HCT116p53+/+ cell): 80.5% and 89.8%
- GSTO substrate assay % Inhibition at 10 µM (GSTO1 [2]): 61.0%
- IC50 (GSTO1 [2]): 2.29 µM

SMILES: C=CCOc1ccccc1CN(C(=O)CCl)c1ccc2c(c1)OCCO2 [C4-17]
- GSTO binding assay (% Inhibition at 10 µM) Recombinant (GSTO1 [1]): 69.3%
- % Inhibition of HCT116p53+/+ cell proliferation at 10 µM (HCT116p53+/+ cell): 29%
- GSTO substrate assay % Inhibition at 10 µM (GSTO1 [2]): 70.2%
- IC50 (GSTO1 [2]): 0.902 µM

SMILES: Cc1cc(C(C)(C)C)cc(C)c1NC(=O)CCl [C1-1]
- GSTO binding assay (% Inhibition at 10 µM) Recombinant (GSTO1 [1]): 17.7%
- % Inhibition of HCT116p53+/+ cell proliferation at 10 µM (HCT116p53+/+ cell): 14% and 21.3%
- GSTO substrate assay % Inhibition at 10 µM (GSTO1 [2]): 16.2%

SMILES: O=C(CCl)N1CCc2cc([N+](=O)[O-])ccc21 [C5-19]
- GSTO binding assay (% Inhibition at 10 µM) Recombinant (GSTO1 [1]): 72.2%
- % Inhibition of HCT116p53+/+ cell proliferation at 10 µM (HCT116p53+/+ cell): 84.6% and 75.2%
- GSTO substrate assay % Inhibition at 10 µM (GSTO1 [2]): 40.0%

SMILES: O=C(CCl)Nc1nc(-c2c[nH]c3ccccc23)cs1 [C2-25]
- GSTO binding assay (% Inhibition at 10 µM) Recombinant (GSTO1 [1]): 75.7%
- % Inhibition of HCT116p53+/+ cell proliferation at 10 µM (HCT116p53+/+ cell): 0.5% and 4.3%
- GSTO substrate assay % Inhibition at 10 µM (GSTO1 [2]): 3.7%

SMILES: Cc1ccc(-c2oc(NC(=O)CCl)c(C#N)c2-c2ccc(C)cc2)cc1 [C2-28]
- GSTO binding assay (% Inhibition at 10 µM) Recombinant (GSTO1 [1]): 59.5%
- % Inhibition of HCT116p53+/+ cell proliferation at 10 µM (HCT116p53+/+ cell): 88.5%
- GSTO substrate assay % Inhibition at 10 µM (GSTO1 [2]): -2.8%

SMILES: O=C(CCl)N1CCC(Cc2ccccc2)CC1 [C5-1]
- GSTO binding assay (% Inhibition at 10 µM) Recombinant (GSTO1 [1]): 67.5%
- % Inhibition of HCT116p53+/+ cell proliferation at 10 µM (HCT116p53+/+ cell): 93.4%
- GSTO substrate assay % Inhibition at 10 µM (GSTO1 [2]): 83.5%
- IC50 (GSTO1 [2]): 0.048 µM

SMILES: CCOc1ccc(/C=C/C2=Cc3c(sc(NC(=O)CCl)c3C#N)C(C)(C)C2)cc1 [C2-21]
- GSTO binding assay (% Inhibition at 10 µM) Endogenous (endogenous GSTO1): 52.3%
- GSTO binding assay (% Inhibition at 10 µM) Recombinant (GSTO1 [1]): 78.6%
- GSTO substrate assay % Inhibition at 10 µM (GSTO1 [2]): 99.5%
- IC50 (GSTO1 [2]): 0.35 µM

SMILES: CCN(c1ccc(NC(=O)CCl)cc1)C(C)C [C1-15]
- GSTO binding assay (% Inhibition at 10 µM) Endogenous (endogenous GSTO1): 78.6%
- GSTO binding assay (% Inhibition at 10 µM) Recombinant (GSTO1 [1]): 43.8%
- GSTO substrate assay % Inhibition at 10 µM (GSTO1 [2]): 91.3%

SMILES: CCN(C(=O)CCl)C1CCS(=O)(=O)C1 (stereo not shown) [C4-4]
- GSTO binding assay (% Inhibition at 10 µM) Endogenous (endogenous GSTO1): 17.0%
- GSTO binding assay (% Inhibition at 10 µM) Recombinant (GSTO1 [1]): 5.9%
- GSTO substrate assay % Inhibition at 10 µM (GSTO1 [2]): -0.8%

SMILES: NC(=O)CCN(C(=O)CCl)c1ccccc1 [C4-3]
- GSTO binding assay (% Inhibition at 10 µM) Recombinant (GSTO1 [1]): -1.7%
- % Inhibition of HCT116p53+/+ cell proliferation at 10 µM (HCT116p53+/+ cell): 70.6% and 71.9%
- GSTO substrate assay % Inhibition at 10 µM (GSTO1 [2]): 32.3%

SMILES: O=C(CCl)NCCN1C(=O)SC(=Cc2ccccc2F)C1=O [C3-32]
- GSTO binding assay (% Inhibition at 10 µM) Endogenous (endogenous GSTO1): 53.1%
- GSTO binding assay (% Inhibition at 10 µM) Recombinant (GSTO1 [1]): 23.6%
- GSTO substrate assay % Inhibition at 10 µM (GSTO1 [2]): 12.5%
